Key:
Experiment in all cases: Post-emergence foliar-applied herbicidal mixtures, greenhouse visual weed control
Format in all cases: in vivo
[1] = system: ECHCG (Echinochloa crusgalli (L.) Beauv., barnyardgrass)
Excerpt: (§1) Seeds of the desired test plant species were planted in a potting media, Metro-mix 360, a peat based potting soil. Metro-mix consists of 35 to 45% specially processed coconutcoir pith, 10 to 20% horticultural grade vermiculite, 15 to 25% processed ash bark, 20 to 30% choice Canadian sphagnum peat moss and proprietary nutrients and other ingredients. When required to ensure good germination and healthy plants, a fungicide treatment and/or other chemical treatment was applied. The plants were grown for 8-16 days in a greenhouse with an approximate 14 h photoperiod which was maintained at about 29° C. during the day and 26° C. during the night. Nutrients (Peters Excel® 15-5-15 5-Ca 2-Mg and iron chelate) were applied in the irrigation solution as needed and water was added on a regular basis. Supplemental lighting was provided with overhead metal halide 1000-Watt lamps as necessary. The plants were sprayed when they reached the second through fourth true leaf stage.
(§2) Treatments consisted of the benzyl ester of 4-amino-3-chloro-5-fluoro-6-(4-chloro-2-fluoro-3-methoxy-phenyl)pyridine-2-carboxylic acid (II), formulated as an SC (suspension concentrate), GF-2978 containing 125.8 g ai/L of active ingredient, and various herbicidal components alone and in combination. The benzyl ester of formula (II) was applied on an active ingredient basis.
(§3) Other herbicidal components were applied on an active ingredient basis and included 4-hydroxyphenyl pyruvate dioxygenase (HPPD)-inhibiting herbicides tembotrione formulated as Laudis, an SC formulation containing 420 g ai/L of tembotrione, or topramezone formulated as Armezon, an SC formulation containing 335.8 g ai/L of topramezone. All treatments were applied with Prime Oil, (crop oil concentrate) at 1% v/v.
(§4) Treatment requirements were calculated based upon the rates being tested, the concentration of active ingredient or acid equivalent in the formulation, for a 30 ml volume based off of an application rate of 200 L/ha. Appropriate amounts of formulated product as calculated by the software package ARM8 (Gylling Data Management Inc.) were added to 60 ml glass vials and diluted with Indianapolis tap water and Prime Oil at 1% v/v. Treatments were applied with Generation III Research Track-Sprayer manufactured by DeVries Manufacturing in Hollandale, Minn., USA, located in building 306, room E1-483, at the Dow AgroSciences Global headquarters in Indianapolis, Ind. US. The track sprayer was calibrated to deliver 200 L/ha utilizing an 8003E even fan spray nozzle at 40 psi (276 kPa) at a speed of 2 mph (3.25 km/hr) and a spray height of 18 to 20 inches (46 to 50 cm) above average plant canopy height.
(§5) The treated plants and control plants were placed in a greenhouse as described above and watered by sub-irrigation to prevent wash-off of the test compounds. […], the condition of the test plants as compared with that of the untreated plants was determined visually and scored on a scale of 0 to 100 percent where 0 corresponds to no injury or growth inhibition and 100 corresponds to complete kill. The Colby method was used to determine the herbicidal effects expected from the mixtures.

[2] = system: IPOHE (Ipomoea hederacea (L.) Jacq., ivyleaf morningglory)
Excerpt: as §1, §2, §3, §4, §5

[3] = system: AMAPA (Amaranthus palmeri, Palmer amaranth)
Excerpt: as §1, §2, §3, §4, §5

[4] = system: AMARE (Amaranthus retroflexus, redroot pigweed)
Excerpt: as §1, §2, §3, §4
The treated plants and control plants were placed in a greenhouse as described above and watered by sub-irrigation to prevent wash-off of the test compounds. […] the untreated plants was determined visually and scored on a scale of 0 to 100 percent where 0 corresponds to no injury or growth inhibition and 100 corresponds to complete kill. The Colby method was used to determine the herbicidal effects expected from the mixtures.

[5] = Compound II 2.5 gai/ha, Tembotrione 0 gai/ha
[6] = Compound II 2.5 gai/ha, Topramezone 0 gai/ha
[7] = Compound II 5 gai/ha, Topramezone 0 gai/ha
[8] = Compound II 7.5 gai/ha, Topramezone 0 gai/ha
[9] = Compound II 15 gai/ha, Topramezone 0 gai/ha
[10] = Compound II 0 gai/ha, Topramezone 3 gai/ha
[11] = Compound II 0 gai/ha, Topramezone 6 gai/ha
[12] = Compound II 0 gai/ha, Topramezone 24 gai/ha
[13] = Compound II 0 gai/ha, Topramezone 12 gai/ha
[14] = Compound II 0 gai/ha, Tembotrione 46 gai/ha

SMILES: COc1c(Cl)ccc(-c2nc(C(=O)OCc3ccccc3)c(Cl)c(N)c2F)c1F [Compound II, benzyl 4-amino-3-chloro-6-(4-chloro-2-fluoro-3-methoxyphenyl)-5-fluoropyridine-2-carboxylate]
- Visual Weed Control (%) - 5 DAA ECHCG Obs [1, 5]: 22.5%
- Visual Weed Control (%) - 5 DAA ECHCG Obs [1, 6]: 22.5%
- Visual Weed Control (%) - 5 DAA ECHCG Obs [1, 7]: 53.75%
- Visual Weed Control (%) - 5 DAA ECHCG Obs [1, 8]: 55%
- Visual Weed Control (%) - 5 DAA ECHCG Obs [1, 9]: 65%
- Visual Weed Control (%) - 12 DAA ECHCG Obs [1, 7]: 61.25%
- Visual Weed Control (%) - 12 DAA ECHCG Obs [1, 8]: 70.75%
- Visual Weed Control (%) - 5 DAA IPOHE Obs [2, 6]: 51.25%
- Visual Weed Control (%) - 5 DAA IPOHE Obs [2, 7]: 62.5%
- Visual Weed Control (%) - 5 DAA IPOHE Obs [2, 8]: 61.25%
- Visual Weed Control (%) - 5 DAA IPOHE Obs [2, 9]: 55.75%
- Visual Weed Control (%) - 12 DAA AMAPA Obs [3, 5]: 75%
- Visual Weed Control (%) - 12 DAA AMAPA Obs [3, 6]: 75%
- Visual Weed Control (%) - 12 DAA AMAPA Obs ([3]; Compound II 5 gai/ha, Tembotrione 0 gai/ha): 73.33%
- Visual Weed Control (%) - 12 DAA AMAPA Obs [3, 7]: 73.33%
- Visual Weed Control (%) - 12 DAA AMAPA Obs [3, 8]: 85%
- Visual Weed Control (%) - 12 DAA AMAPA Obs ([3]; Compound II 15 gai/ha, Tembotrione 0 gai/ha): 80%
- Visual Weed Control (%) - 12 DAA AMAPA Obs [3, 9]: 80%
- Visual Weed Control (%) - 5 DAA AMARE Obs [4, 9]: 73%
- Visual Weed Control (%) - 12 DAA AMARE Obs [4, 5]: 61.25%
- Visual Weed Control (%) - 12 DAA AMARE Obs [4, 6]: 61.25%
- Visual Weed Control (%) - 12 DAA AMARE Obs [4, 7]: 65.75%
- Visual Weed Control (%) - 12 DAA AMARE Obs ([4]; Compound II 7.5 gai/ha, Tembotrione 0 gai/ha): 75%
- Visual Weed Control (%) - 12 DAA AMARE Obs [4, 8]: 75%

SMILES: Cc1c(C(=O)c2cnn(C)c2O)ccc(S(C)(=O)=O)c1C1=NOCC1 [Topramezone, [3-(4,5-dihydro-3-isoxazolyl)-2-methyl-4-(methylsulfonyl)phenyl](5-hydroxy-1-methyl-1H-pyrazol-4-yl)methanone]
- Visual Weed Control (%) - 5 DAA ECHCG Obs [1, 10]: 0.75%
- Visual Weed Control (%) - 5 DAA ECHCG Obs [1, 11]: 6.25%
- Visual Weed Control (%) - 5 DAA ECHCG Obs [1, 12]: 51.25%
- Visual Weed Control (%) - 12 DAA ECHCG Obs [1, 10]: 0%
- Visual Weed Control (%) - 12 DAA ECHCG Obs [1, 11]: 1.25%
- Visual Weed Control (%) - 12 DAA ECHCG Obs [1, 13]: 36.25%
- Visual Weed Control (%) - 5 DAA IPOHE Obs [2, 10]: 6.25%
- Visual Weed Control (%) - 5 DAA IPOHE Obs [2, 11]: 6.25%
- Visual Weed Control (%) - 5 DAA IPOHE Obs [2, 13]: 8.75%
- Visual Weed Control (%) - 5 DAA IPOHE Obs [2, 12]: 33.25%
- Visual Weed Control (%) - 12 DAA AMAPA Obs [3, 10]: 86.67%
- Visual Weed Control (%) - 12 DAA AMAPA Obs [3, 11]: 75%
- Visual Weed Control (%) - 5 DAA AMARE Obs [4, 12]: 50.75%
- Visual Weed Control (%) - 12 DAA AMARE Obs [4, 11]: 52.5%
- Visual Weed Control (%) - 12 DAA AMARE Obs [4, 13]: 77.5%

SMILES: CS(=O)(=O)c1ccc(C(=O)C2C(=O)CCCC2=O)c(Cl)c1COCC(F)(F)F [Tembotrione, 2-[2-chloro-4-(methylsulfonyl)-3-[(2,2,2-trifluoroethoxy)methyl]benzoyl]-1,3-cyclohexanedione]
- Visual Weed Control (%) - 5 DAA ECHCG Obs [1, 14]: 57.5%
- Visual Weed Control (%) - 12 DAA AMAPA Obs ([3]; Compound II 0 gai/ha, Tembotrione 5.75 gai/ha): 44.33%
- Visual Weed Control (%) - 12 DAA AMAPA Obs ([3]; Compound II 0 gai/ha, Tembotrione 11.5 gai/ha): 50%
- Visual Weed Control (%) - 12 DAA AMAPA Obs ([3]; Compound II 0 gai/ha, Tembotrione 23 gai/ha): 66%
- Visual Weed Control (%) - 12 DAA AMARE Obs [4, 14]: 43.75%

Source: US10779535B2, “Herbicidal compositions comprising 4-amino-3-chloro-5-fluoro-6-(4-chloro-2-fluoro-3-methoxyphenyl) pyridine-2-carboxylic acid or a derivative thereof and tembotrione and/or topramezone” (Dow AgroSciences LLC, priority 2017, dated 2020)
